# Results: patent US9637473B2, “Acrylamide derivatives as antimalarial agents” (priority 2013, dated 2017)
# Where a name gives a salt, the structure may show the parent alone.
# Test system: P. Falciparum NF54
# Test: Plasmodium falciparum in vitro assay ([3H]-hypoxanthine incorporation)
# Assay type: cell-based
# Settings: P. Falciparum NF54, erythrocytic stages in human red blood cells, 50% human serum
# Method: In Vitro Antimalarial Activity: Plasmodium falciparum In Vitro Assay: In vitro activity against erythrocytic stages of P. Falciparum in human red blood cells is determined using a [^3H]-hypoxanthine incorporation assay. One strain sensitive to all drugs (P. […] After 48 hours, [^3H]-hypoxanthine (0.5 μCi) is added to each well of a plate. The plates are incubated for a further 24 hours under the same conditions then harvested with a Betaplate cell harvester (Wallac) and washed with distilled water. The dried filters are inserted into a plastic foil with 10 mL of scintillation fluid and counted in a Betaplate liquid scintillation counter. IC50 values are calculated from sigmoidal inhibition curves using Microsoft Excel.
row,Structure (SMILES),IC50
1,"CN1CCC(N2CCC(N(Cc3ccc(N(C)c4ccncc4)cc3)C(=O)/C=C/c3ccc(C(F)(F)F)cc3)C(F)C2)CC1 (racemic) [Example 78, (±)-(E)-N-(cis-3-fluoro-1′-methyl-[1,4′-bipiperidin]-4-yl)-N-(4-(methyl(pyridin-4-yl)amino)benzyl)-3-(4-(trifluoromethyl)phenyl)acrylamide]",12 nM

# Same assay, conditions: Plasmodium falciparum, Erythrocyte, P. Falciparum NF54, erythrocytic stages in human red blood cells, 50% human serum
row,Structure (SMILES),IC50
1,"Cc1cc(-c2ccc(CN(C(=O)/C=C/c3ccc(C(F)(F)F)cc3)C3CCN(C4CCCC4)CC3)cc2)ccn1 [Example 196, (E)-N-(1-Cyclopentyl-piperidin-4-yl)-N-[4-(2-methyl-pyridin-4-yl)-benzyl]-3-(4-trifluoromethyl-phenyl)-acrylamide]",248 nM
2,"CN(c1ccncc1)c1ccc(CN(C(=O)/C=C/c2ccc(Cl)cc2)C2CCN(Cc3ccccc3)CC2)cc1 [Example 152, (E)-N-(1-Benzyl-piperidin-4-yl)-3-(4-chloro-phenyl)-N-[4-(methyl-pyridin-4-yl-amino)-benzyl]-acrylamide]",76 nM
3,"CN(c1ccc(CN(C(=O)/C=C/c2ccc(C(F)(F)F)cc2)C2CCN(C3CCCC3)CC2)cc1)c1cccnc1 [Example 96, (E)-N-(1-Cyclopentyl-piperidin-4-yl)-N-[4-(methyl-pyridin-3-yl-amino)-benzyl]-3-(4-trifluoromethyl-phenyl)-acrylamide]",351 nM
4,"COc1ccc(/C=C/C(=O)N(Cc2ccc(N(C)c3ccncc3)cc2)C2CCN(Cc3ccccc3)CC2)cc1 [Example 149, (E)-N-(1-Benzyl-piperidin-4-yl)-3-(4-methoxy-phenyl)-N-[4-(methyl-pyridin-4-yl-amino)-benzyl]-acrylamide]",181 nM
5,"CN1CCC(N2CCC(N(Cc3ccc(Nc4ccncc4)cc3)C(=O)/C=C/c3ccc(C(F)(F)F)cc3)CC2)CC1 [Example 115, (E)-N-(1′-Methyl-[1,4′]bipiperidinyl-4-yl)-N-[4-(pyridin-4-ylamino)-benzyl]-3-(4-trifluoromethyl-phenyl)-acrylamide]",82 nM
6,"CCCN1CCC(N(Cc2ccc(Nc3ccnc(C)c3)cc2)C(=O)/C=C/c2ccc(C(F)(F)F)cc2)CC1 [Example 33, (E)-N-[4-(2-Methyl-pyridin-4-ylamino)-benzyl]-N-(1-propyl-piperidin-4-yl)-3-(4-trifluoromethyl-phenyl)-acrylamide]",42 nM
7,"Cc1cc(Nc2ccc(CN(C(=O)/C=C/c3ccc(C(F)(F)F)cc3)C3CCN(C)CC3)cc2)ccn1 [Example 174, (E)-N-(1-Methyl-piperidin-4-yl)-N-[4-(2-methyl-pyridin-4-ylamino)-benzyl]-3-(4-trifluoromethyl-phenyl)-acrylamide]",67 nM
8,"Cc1ncc(-c2ccc(CN(C(=O)/C=C/c3ccc(C(F)(F)F)cc3)C3CCN(C4CCCC4)CC3)cc2)s1 [Example 201, (E)-N-(1-Cyclopentyl-piperidin-4-yl)-N-[4-(2-methyl-thiazol-5-yl)-benzyl]-3-(4-trifluoromethyl-phenyl)-acrylamide]",357 nM
9,"CN1CCC(N2CCC(N(Cc3ccc(N(C)c4ccncc4)cc3)C(=O)/C=C/c3ccc(C(F)(F)F)nc3)CC2)CC1 [Example 183, (E)-N-(1′-Methyl-[1,4′]bipiperidinyl-4-yl)-N-[4-(methyl-pyridin-4-yl-amino)-benzyl]-3-(6-trifluoromethyl-pyridin-3-yl)-acrylamide]",49 nM
10,"Cc1cc(Nc2ccc(CN(C(=O)/C=C/c3ccc(C(F)(F)F)cc3)C3CCN(C4CCCC4)CC3)cc2)ccn1 [Example 95, (E)-N-(1-Cyclopentyl-piperidin-4-yl)-N-[4-(2-methyl-pyridin-4-ylamino)-benzyl]-3-(4-trifluoromethyl-phenyl)-acrylamide]",13 nM
11,"CN(c1ccncc1)c1ccc(CN(C(=O)/C=C/c2ccc(C(F)(F)F)cc2)[C@@H]2CCN(C3CCCC3)C[C@H]2F)cc1 (racemic) [Example 80, (±)-(E)-N-(trans-1-cyclopentyl-3-fluoropiperidin-4-yl)-N-(4-(methyl(pyridin-4-yl)amino)benzyl)-3-(4-(trifluoromethyl)phenyl)acrylamide]",105 nM
12,"CCN(CC)Cc1cc(Nc2ccc(CN(C(=O)/C=C/c3ccc(C(F)(F)F)cc3)C3CCN(C)CC3)cc2)ccc1O [Example 185, (E)-N-[4-(3-Diethylaminomethyl-4-hydroxy-phenylamino)-benzyl]-N-(1-methyl-piperidin-4-yl)-3-(4-trifluoromethyl-phenyl)-acrylamide]",39 nM

# The remaining lines, values ahead:
row,IC50,Structure (SMILES)
1,43 nM,"CN(c1ccncc1)c1ccc(CN(C(=O)/C=C/c2ccc(C(F)(F)F)cc2)C2CCN(C3CCCC3)C2)cc1 (racemic) [Example 99, (±)-(E)-N-(1-Cyclopentyl-pyrrolidin-3-yl)-N-[4-(methyl-pyridin-4-yl-amino)-benzyl]-3-(4-trifluoromethyl-phenyl)-acrylamide]"
2,140 nM,"CCN1CCC[C@H](N(Cc2ccc(N(C)c3ccncc3)cc2)C(=O)/C=C/c2ccc(C(F)(F)F)cc2)C1 [Example 82, (E)-N-((S)-1-Ethyl-piperidin-3-yl)-N-[4-(methyl-pyridin-4-yl-amino)-benzyl]-3-(4-trifluoromethyl-phenyl)-acrylamide]"
3,85 nM,"CC(C)CCN1CCCC(N(Cc2ccc(N(C)c3ccncc3)cc2)C(=O)/C=C/c2ccc(C(F)(F)F)cc2)CC1 (racemic) [Example 63, (±)-(E)-N-(1-isopentylazepan-4-yl)-N-(4-(methyl(pyridin-4-yl)amino)benzyl)-3-(4-(trifluoromethyl)phenyl)acrylamide]"
4,256 nM,"CN(c1ccncc1)c1ccc(CN(C(=O)/C=C/c2ccc(C(F)(F)F)cc2)C2CCN(Cc3ncc4ccccn34)CC2)cc1 [Example 20, (E)-N-(1-Imidazo[1,5-a]pyridin-3-ylmethyl-piperidin-4-yl)-N-[4-(methyl-pyridin-4-yl-amino)-benzyl]-3-(4-trifluoromethyl-phenyl)-acrylamide]"
5,80 nM,"Cc1cc(Nc2cncc(CN(C(=O)/C=C/c3ccc(C(F)(F)F)cc3)C3CCN(C(C)C)CC3)c2)ccn1 [Example 136, (E)-N-(1-Isopropyl-piperidin-4-yl)-N-[5-(2-methyl-pyridin-4-ylamino)-pyridin-3-ylmethyl]-3-(4-trifluoromethyl-phenyl)-acrylamide formate]"
6,69 nM,"CC(C)N1CCC(N(Cc2cncc(N(C)c3ccncc3)c2)C(=O)/C=C/c2ccc(C(F)(F)F)cc2)CC1 [Example 133, (E)-N-(1-Isopropyl-piperidin-4-yl)-N-[5-(methyl-pyridin-4-yl-amino)-pyridin-3-ylmethyl]-3-(4-trifluoromethyl-phenyl)-acrylamide formate]"
7,26 nM,"CCN1CCC(N(Cc2ccc(N(C)c3ccncc3)cc2)C(=O)/C=C/c2ccc(C(F)(F)F)cc2)CC1 [Example 7, (E)-N-(1-Ethyl-piperidin-4-yl)-N-[4-(methyl-pyridin-4-yl-amino)-benzyl]-3-(4-trifluoromethyl-phenyl)-acrylamide]"
8,80 nM,"CN(c1ccncc1)c1ccc(CN(C(=O)/C=C/c2ccc(C(F)(F)F)cc2)[C@@H]2CCCN(C3CCCC3)C2)cc1 [Example 59, (R,E)-N-(1-cyclopentylpiperidin-3-yl)-N-(4-(methyl(pyridin-4-yl)amino)benzyl)-3-(4-(trifluoromethyl)phenyl)acrylamide]"
